According to patent publication US7939520B2, “Aminoazacyclyl-3-sulfonylindazoles as 5-hydroxytryptamine-6 ligands” (Wyeth LLC, priority 2007, dated 2011):

biological target: T1, human cloned 5-HT6 receptors (Homo sapiens, UniProt P50406); experiment: 5-HT6 binding affinity, [3H]-LSD displacement on membranes of Hela cells; details: not given
T1 construct: expressed in transfected cells; host or cells: HeLa cells
T1 sequence (P50406 whole entry): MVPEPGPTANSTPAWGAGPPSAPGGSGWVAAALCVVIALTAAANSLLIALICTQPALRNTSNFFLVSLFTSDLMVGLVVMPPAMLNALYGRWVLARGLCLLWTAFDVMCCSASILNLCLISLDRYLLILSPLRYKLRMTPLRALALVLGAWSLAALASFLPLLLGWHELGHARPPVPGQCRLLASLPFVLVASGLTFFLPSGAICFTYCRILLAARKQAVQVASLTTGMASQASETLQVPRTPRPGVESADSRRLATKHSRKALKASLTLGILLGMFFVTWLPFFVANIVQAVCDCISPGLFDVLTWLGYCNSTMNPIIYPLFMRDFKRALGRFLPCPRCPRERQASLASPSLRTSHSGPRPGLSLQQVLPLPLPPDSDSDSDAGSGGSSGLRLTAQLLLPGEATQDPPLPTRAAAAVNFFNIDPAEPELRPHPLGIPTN

| SMILES | Ki |
| --- | --- |
| Cn1nc2ccc(N3CC[C@H](N)C3)cc2c1S(=O)(=O)c1cccc2ccccc12 [Example 18] | 54.3 nM |
| CC(C)n1nc2ccc(N3CC[C@H](N)C3)cc2c1S(=O)(=O)c1cccc2ccccc12 [Example 19] | 48.7 nM |
| CC(C)Cn1nc2ccc(N3CC[C@H](N)C3)cc2c1S(=O)(=O)c1cccc2ccccc12 [Example 20] | 75.8 nM |

same assay, conditions: [3H]-LSD 3.0 nM, Hela cell membranes, 120 min, room temperature; read-out: 5-HT6 Binding Ki

| Ki | SMILES |
| --- | --- |
| 3.5 nM | NC1CN(c2ccc3[nH]nc(S(=O)(=O)c4cccc5ccccc45)c3c2)C1 [Example 8, 1-[3-(1-naphthylsulfonyl)-1H-indazol-5-yl]azetidin-3-amine] |
| 131 nM | N[C@H]1CCN(c2ccc3[nH]nc(S(=O)(=O)c4ccccc4)c3c2)C1 [Example 10, (3S)-1-(3-phenylsulfonyl-1H-indazol-5-yl)pyrrolidin-3-amine] |
| 146 nM | N[C@@H]1CCN(c2ccc3[nH]nc(S(=O)(=O)c4ccccc4)c3c2)C1 [Example 11, (3R)-1-(3-phenylsulfonyl-1H-indazol-5-yl)pyrrolidin-3-amine] |
| 1.1 nM | CN(C)[C@@H]1CCN(c2ccc3[nH]nc(S(=O)(=O)c4cccc5ccccc45)c3c2)C1 [Example 12, (R)—N,N-dimethyl-1-(3-(naphthalen-1-ylsulfonyl)-1H-indazol-5-yl)pyrrolidin-3-amine] |
| 50 nM | CN(C)[C@H]1CCN(c2ccc3[nH]nc(S(=O)(=O)c4cccc5ccccc45)c3c2)C1 [Example 13, (S)—N,N-dimethyl-1-(3-(naphthalen-1-ylsulfonyl)-1H-indazol-5-yl)pyrrolidin-3-amine] |
| 1.1 nM | NC1CN(c2ccc3[nH]nc(S(=O)(=O)c4ccccc4)c3c2)C1 [Example 14, 1-(3-(phenylsulfonyl)-1H-indazol-5-yl)azetidin-3-amine] |
| 13.7 nM | CC(C)n1nc(S(=O)(=O)c2cccc3ccccc23)c2cc(N3CC[C@@H](N)C3)ccc21 [Example 16, (R)-1-(1-isopropyl-3-(naphthalen-1-ylsulfonyl)-1H-indazol-5-yl)pyrrolidin-3-amine] |

same assay, conditions: read-out: 5-HT6 Binding Ki

| SMILES | Ki |
| --- | --- |
| NC1CCN(c2ccc3[nH]nc(S(=O)(=O)c4cccc(Cl)c4)c3c2)CC1 [Example 5, 1-{3-[(3-chlorophenyl)sulfonyl]-1H-indazol-5-yl}piperidin-4-amine] | 8 nM |
| Cn1nc(S(=O)(=O)c2cccc3ccccc23)c2cc(N3CC[C@@H](N)C3)ccc21 [Example 15, (3R)-1-[1-methyl-3-(naphthalen-1-ylsulfonyl)-1H-indazol-5-yl]pyrrolidin-3-amine] | 21.1 nM |
| CC(C)Cn1nc(S(=O)(=O)c2cccc3ccccc23)c2cc(N3CC[C@@H](N)C3)ccc21 [Example 17, (R)-1-(1-isobutyl-3-(naphthalen-1-ylsulfonyl)-1H-indazol-5-yl)pyrrolidin-3-amine] | 36.9 nM |
